In one experiment the test system is barbed-wire cuts/gashes. In words: Barbed-wire cuts/gashes, topical treatment of horses E, F and G. Type of experiment: in vivo, horse. From the text:
(1) History: The skin of the hoof area of horse E was badly torn from barbed-wire.
Treatment: A cream base containing 0.4% GHL:CU and 6% DMSO was applied to the area 2 times/day.
(2) History: A 33-year-old horse (horse F) received a serious barbed wire wound to the lower leg directly into the cleft of the hoof. The wound area was ripped open, thereby dividing the hoof.
Treatment: A cream base with 0.4% GHL-CU and 6% DMSO was applied 1-2 times/day.
(3) History: A very deep barbed-wire induced gash on the upper rear leg of horse G was originally treated with antibiotics and closed with stitches.
Treatment: A cream containing 0.4% GHL-CU and 6% DMSO was applied for 2 weeks (1-2 times/day).

The subject of another experiment is rope burn. In words: Rope burn, topical treatment of horse H. It is filed as in vivo. Conditions: rear ankle, cream base 0.4% GHL-CU and 6% DMSO, 2 times/day. From the text:
The rope burn had removed all hair and skin. A veterinarian treated the burn with antibiotics and a nitrofurosone ointment. The scab was removed daily with washing. The injury responded, although quite slowly.
Treatment: A cream base with 0.4% GHL-CU and 6% DMSO was applied to the burn 2 times/day. The scab was left on the area during the treatment period.

Experiment [1] concerns denuded area after injury (poor regrowth of hair). In words: Denuded area after injury, topical treatment of horses B and C. Type of experiment: in vivo, horse. Conditions: cream base 0.4% GHL-CU and 6% DMSO. The procedure:
(1) History: Approximately 2 months following wounding (lower leg, cause unspecified) healing occurred in horse B with poor regrowth of hair. The affected area measured approximately 2 square inches
Treatment: A cream base containing 0.4% GHL-CU and 6% DMSO was applied to the denuded area 3-4 times/week. Substantial hair growth was noted after treatment for approximately 2-3 weeks.
(2) History: An ulcerative sore on the back of Horse C below the saddle horn area (withers) was treated by a veterinarian using antibiotics and an antibacterial spray. […] Hair was absent from the partially healed sore.
Treatment: A cream base consisting of 0.4% GHL-CU and 6% DMSO was applied 1-2 times/day. Within 3 weeks, the infected ulcerative area resolved and hair was noted to be covering the wound.

Experiment [2] relates to infected fly bites (raised nodules in the saddle region). Nature of the experiment: Saddle sores from fly bites, topical treatment of horse A. Type of experiment: in vivo. Conditions: cream base 0.4% GHL-CU and 6% DMSO, topical twice/daily. From the text:
History: Horse A suffered from fly bites which became infected and developed into irritating raised nodules located on the back in the saddle region over a period of 8 weeks.
Treatment: A cream base containing 0.4% GHL-CU and 6% DMSO was applied twice/daily to the nodules. Within 4-5 days, softening of the nodules occurred along with diminishment of irritation and inflammation. Total healing occurred within 10-14 days.

In experiment [3] the test system is ulcerating pressure-induced injury. Nature of the experiment: Ulcerating pressure-induced injury, topical treatment of horse J. Type of experiment: in vivo. From the text:
History: A 12-year-old thoroughbred (horse J) developed a large ulcer (2 inch diameter) on top of the withers (back beneath saddle horn area) A veterinarian treated the wound with antibiotics and an antibacterial spray. […] The wound continued to be large and inflamed after 3-4 months
Treatment: A cream containing 0.4% GHL:Cu with 6% DMSO was applied 1-2 times/day. The old scab fell off after a few days and was replaced by a new scab. After 2 weeks, the infection cleared up and ulceration began to be replaced by a skin covering. […] Approximately 1 month after beginning treatment, the ulcerative injury had resolved totally.

The subject of the next experiment is puncture wound. In words: Puncture wound, topical treatment of horse D. It is filed as in vivo. Conditions: upper leg, cream base 0.4% GHL-CU and 3% DMSO, twice/day. The procedure:
History: A puncture wound of unknown origin occurred to the upper leg of horse D. No traditional therapy (antibiotics) was used prior to treatment.
Treatment: A cream base containing 0.4% GHL-CU and 3% DMSO was applied to the wound site shortly after the wound was discovered. […] The treatment was performed twice/day.

For experiment [4], the system named is granulation tissue ("proud flesh"). In words: Excessive accumulation of granulation tissue (proud flesh), topical treatment of horse K. Type of experiment: in vivo. Conditions: cream base 0.4% GHL:CU and 3% DMSO for one month. From the text:
History: An accumulation of unsightly granulation tissue or granuloma (known as "proud flesh") was present over a poorly healed wound (sight unspecified) in horse K. Typically, proud flesh often accompanies an insufficiently healing wound, appearing bubbly, swollen and nodular.

For experiment [5], the system named is full-thickness skin loss wound. In words: Full-thickness skin loss, topical treatment of horse I. Type of experiment: in vivo. An excerpt:
History: Horse I suffered from a traumatic injury to the anterior mid-calf aspect of the rear leg, caused by striking a fence while jumping. A flap of skin initially remained over the approximately 2.5 inch diameter wound. The leg was bandaged for a brief time, and the dead skin flap removed within 10 days post-injury. The leg appeared swollen and inflamed.
Inflammation and swelling had also diminished.

Setting [6] is: horse F, cream base 0.4% GHL-CU and 6% DMSO, 1-2 times/day.

Some results are limits rather than exact numbers.

For `NC(=O)N/N=C/c1ccc([N+](=O)[O-])o1` [nitrofurosone, reference compound], in the experiment with barbed-wire cuts/gashes (horse G, 0.2% antibacterial agent), the “effect of prior treatment on the dehisced wound” value is on record as “ineffective”.
As for “Glycyl-L-Histidy-L-Lysine: Copper(II) [GHL:Cu]”, the hair regrowth result in the experiment with rope burn was “hair grew back over the area”. For the same compound, in the experiment with rope burn (scab left on), the “healing of the wound” value was “healed up within a week”. Further, the “treatment time after which substantial hair growth was noted” value in experiment [1] (horse B, lower leg, about 2 square inches, 3-4 times/week) is 2-3 weeks. Moreover, in experiment [1] (horse C, ulcerative sore on the back, 1-2 times/day), the “time to resolution of infected ulcerative area with hair covering the wound” value is at most 3 weeks. Moreover, in experiment [2], the “time to softening of the nodules with diminishment of irritation and inflammation” value is 4 to 5 days; the “time to total healing” value lay in the range of 10 to 14 days. The “time until infection cleared up and ulceration began to be replaced by skin covering” value in experiment [3] (2 inch diameter ulcer on withers, cream 0.4% GHL:Cu with 6% DMSO, 1-2 times/day) worked out at 2 weeks. Moreover, the “time until ulcerative injury had resolved totally” value in experiment [3] (cream 0.4% GHL:Cu with 6% DMSO, 1-2 times/day) is “Approximately 1 month”. Besides, the “hair growth over the area” value in experiment [3] (shortly after 2 weeks) is listed as “hair began growing over the area”. In the experiment with puncture wound, the “healing of the wound” value is “healed within a few days” and the “infection of the wound” value was “did not become infected”. In addition, the “swelling and appearance of proud flesh” value in experiment [4] is “notable reduction in swelling and improved appearance”. Further, the “time until the wound scabbed over” value with barbed-wire cuts/gashes (horse E, hoof area, cream base 0.4% GHL:CU and 6% DMSO, 2 times/day) was found to be 5 days. Further, the “examination of the wound 3 weeks after treatment” value in the experiment on barbed-wire cuts/gashes (horse E, hoof area, treatment halted after 5 days) was “no evidence of infection”. Moreover, the “new scab formation with reduction in wound size” value in the experiment on barbed-wire cuts/gashes (horse F, lower leg/hoof cleft, cream base 0.4% GHL-CU and 6% DMSO, 1-2 times/day) is “within a few days”. In addition, in the experiment with barbed-wire cuts/gashes (setting [6]), the “time to almost total healing” value is given as at most 4 weeks; the “wound course over 2 weeks of treatment” value was “continuation of wound reduction and scab covering”. Also, in the experiment on barbed-wire cuts/gashes (horse G, dehisced gash upper rear leg, 6 inches x 1 inch, cream 0.4% GHL-CU and 6% DMSO, 1-2 times/day for 2 weeks), the “scab formation over open, raw tissue” value is “A scab formed quickly”. In addition, in the experiment with barbed-wire cuts/gashes (horse G, cream 0.4% GHL-CU and 6% DMSO, 1-2 times/day for 2 weeks), the wound closure result was “Within weeks, the wound had begun to close and appeared healthy”. The “granulation of the gash” value in the experiment with barbed-wire cuts/gashes (horse G, noted when scab was removed during cleaning) is on record as “granulated considerably”.
Consider “Glycyl-L-Histidyl-L-Lysine octyl ester:Copper (II) [GHL-octyl ester Cu]”, for which, in experiment [5] (1 time/day over the following week), the “wound size under continued treatment” value is listed as “continued to decrease in size”. Further, the “reduction of wound size” value in experiment [5] (about 2.5 inch diameter wound, cream base 0.4% GHL-octyl ester Cu and 6% DMSO, 2 times/day for 2 weeks) is about 50%. Also, in experiment [5] (after 2 weeks, 2 times/day), the inflammation and swelling entry is reported as “diminished”; the scab formation entry is “a scab had formed over the area”.

The record behind these values is US4937230A, “Method of healing wounds in horses” (ProCyte Corporation, priority 1987, dated 1990).
